These results are taken from BindingDB's records for doi:10.1016/j.bmcl.2006.01.056 (Bristol-Myers Squibb, 2006).

This experiment concerns the target T1, Kinesin-like protein KIF11 (Homo sapiens, UniProt P52732).
T1 sequence (P52732 whole entry): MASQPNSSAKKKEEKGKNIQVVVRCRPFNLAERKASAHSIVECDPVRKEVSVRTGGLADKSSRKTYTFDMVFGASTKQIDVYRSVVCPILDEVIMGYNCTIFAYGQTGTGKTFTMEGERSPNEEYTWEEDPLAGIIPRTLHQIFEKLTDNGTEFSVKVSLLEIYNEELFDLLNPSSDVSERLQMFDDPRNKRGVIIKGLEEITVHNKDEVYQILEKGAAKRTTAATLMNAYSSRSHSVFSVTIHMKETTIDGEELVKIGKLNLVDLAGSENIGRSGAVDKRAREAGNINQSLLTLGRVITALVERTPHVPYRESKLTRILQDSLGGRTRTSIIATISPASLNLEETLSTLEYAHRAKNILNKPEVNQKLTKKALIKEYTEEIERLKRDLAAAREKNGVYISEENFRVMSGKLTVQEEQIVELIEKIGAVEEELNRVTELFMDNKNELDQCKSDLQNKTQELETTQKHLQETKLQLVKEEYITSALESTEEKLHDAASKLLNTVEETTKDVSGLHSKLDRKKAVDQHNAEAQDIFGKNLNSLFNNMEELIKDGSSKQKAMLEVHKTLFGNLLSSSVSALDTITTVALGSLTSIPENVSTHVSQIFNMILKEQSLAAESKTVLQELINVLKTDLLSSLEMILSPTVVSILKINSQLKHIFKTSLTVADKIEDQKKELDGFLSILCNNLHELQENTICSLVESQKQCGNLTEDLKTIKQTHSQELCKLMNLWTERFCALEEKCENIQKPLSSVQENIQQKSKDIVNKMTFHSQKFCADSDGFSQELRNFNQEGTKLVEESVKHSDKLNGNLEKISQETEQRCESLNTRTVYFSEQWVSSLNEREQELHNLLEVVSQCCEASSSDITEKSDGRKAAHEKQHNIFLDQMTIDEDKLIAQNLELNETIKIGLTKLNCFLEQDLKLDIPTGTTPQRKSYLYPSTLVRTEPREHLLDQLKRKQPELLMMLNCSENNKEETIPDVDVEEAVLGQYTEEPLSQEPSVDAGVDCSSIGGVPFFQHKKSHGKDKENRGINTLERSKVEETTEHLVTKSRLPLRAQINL
The experiment in a line: Microtubule-Activated Eg5 ATPase Assay. As to the method:
ATPase assays with Eg5 motor domain protein were performed using Kinase-Glo Luminescent Kit as described by the manufacturer (Promega).

One may read the IC50 as the concentration that inhibits the measured activity by half. As to `CN(C)C(=O)N1Cc2c(ccc3ccccc23)C(c2cccc(O)c2)C1` (stereo unspecified) [6-(3-hydroxyphenyl)-N,N-dimethyl-4-azatricyclo[8.4.0.0^{2,7}]tetradeca-1(10),2(7),8,11,13-pentaene-4-carboxamide], the half-maximal inhibitory concentration (IC50) was 0.477 µM.
